Test system: patients with indolent forms of mastocytosis with handicap, D816V absent in at least one infiltrated organ
Assay: Example 1 phase 2a study, response assessment
Type: in vivo, human
Set-up: Hamilton rating Δ Mean ± SD / QLQ-C30 Symptom Δ Mean ± SD / QLQ-C30 Global Health Δ Mean ± SD / AFIRMM Δ Mean ± SD / Hamilton rating ΔMean ± SD / QLQC30 Symptom ΔMean ± SD / QLQC30 Global Health ΔMean ± SD / AFIRMM ΔMean ± SD: scale not given here
Conditions: for AFIRMM ΔMean ± SD / Flushes per day ΔMean ± SD / Hamilton rating ΔMean ± SD / Micturitions per day ΔMean ± SD / OPA Score Change: (2, 3, 4) to (0, 1) / OPA Score No change / Pruritus ΔMean ± SD / QLQC30 Functional ΔMean ± SD / QLQC30 Global Health ΔMean ± SD / QLQC30 Symptom ΔMean ± SD / Stools per day ΔMean ± SD: extension-phase cohort
Description: Eligible patients were aged >18 years, had previously documented indolent systemic, smoldering systemic or cutaneous mastocytosis as per the WHO classification with associated disability as the result of mast cell released mediators and had not responded to usual symptomatic treatments for more the 6 months. […] A single occurrence of this criterion was deemed sufficient for inclusion and so no systematic examination of multiple organs was carried out specifically for this study.
Patients were classified as having a handicap if after appropriate symptomatic treatments they fulfilled at least one of the following a priori criteria: number of flushes/day ≥1; pruritus score ≥6; number of stools ≥4/day; micturition frequency ≥8/day; Hamilton rating for depression ≥10; or EORTC quality-of-life questionnaire (QLQ-C30) symptom score, functional score, and global health status of >0. Patients were excluded if they experienced inadequate organ function defined via blood test levels, or an Eastern Cooperative Oncology Group performance status >2. Other exclusion criteria included: life expectancy <6 months, severe or uncontrolled medical disease, and patients who were pregnant or nursing.
In accordance to the AFIRMM study (Hermine O, et al., 2008, PLoS ONE. 3:e2266), evaluation of treatment response was based upon the change of clinical symptoms associated with a patient's handicaps at week 12 (W12) relative to baseline. Primary endpoints were daily frequency of flushes; pruritus score; and Hamilton rating for depression, as well as, daily stool and micturition frequencies; QLQ-C30 global health status, functional, and symptom scores. […] For those patients entering the extension phase, assessments were performed every 4 weeks for the first 3 months of extension, and every 12 weeks thereafter. Secondary endpoints included the W12 assessment of AFIRMM score (a validated questionnaire assessing the self-perceived severity of mastocytosis) (Hermine O, et al., 2008, PLoS ONE. 3:e2266); overall patient assessment (OPA) score; tryptase levels; and change in organ mast cell infiltration. Determination of D816V mutation and serum tryptase levels was conducted following procedures described previously (Hermine O, et al., 2008, PLoS ONE. 3:e2266). Overall clinical response analysis at W12 defined a responder as having an improvement of ≥50% in baseline handicap of a key response endpoint (Hamilton rating, flushes, or pruritus) without deterioration or emergence of handicap. Any patient with deterioration of ≥50% in any handicap, and/or with emergence of a new handicap with an increase of ≥50% from baseline was considered as worsening. Any patient who discontinued the study before W12 was considered a non responder. Discrimination between dose regimens was investigated by analyses of the ‘time to first response’, according to the initial dosage, and ‘dose at time of first response’ in key response endpoints.
Response analysis was performed on subgroups of the ITT population according to a patient's handicap at baseline and for whom response was evaluated at W12; referred to hereafter as the handicap-related population. No data imputation was implemented. The per protocol (PP) population was defined as a subset of a given handicap-related population, which in addition had presented no major protocol deviations. Summary response data are presented using descriptive statistics with mean improvement compared to baseline in each handicap cohort, regardless of disease classification. The appropriate Wilcoxon or Fisher tests were used for group comparison of baseline disease, demographic characteristics between dose level groups and response relative to baseline. Subpopulation analysis was also conducted according to initial c-Kit status.

Compound: Cc1ccc(NC(=O)c2ccc(CN3CCN(C)CC3)cc2)cc1Nc1nc(-c2cccnc2)cs1 [masitinib, 4-(4-methylpiperazin-1-ylmethyl)-N-[4-methyl-3-(4-pyridin-3ylthiazol-2-ylamino)phenyl]benzamide]
- first response events: AFIRMM score (at 6.0 mg/kg/day): 5
- first response events: Cumulative Frequency (at 6.0 mg/kg/day): 96%
- first response events: Flush (at 6.0 mg/kg/day): 4
- first response events: Hamilton (at 6.0 mg/kg/day): 4
- first response events: Micturition (at 6.0 mg/kg/day): 1
- first response events: OPA score (at 6.0 mg/kg/day): 4
- first response events: Pruritus (at 6.0 mg/kg/day): 4
- first response events: QLQ30 Functional (at 6.0 mg/kg/day): 1
- first response events: QLQ30 Global (at 6.0 mg/kg/day): 2
- first response events: QLQ30 Symptom (at 6.0 mg/kg/day): 1
- first response events: Stool (at 6.0 mg/kg/day): 2
- first response events: Total events (at 6.0 mg/kg/day): 28
- first response events: Cumulative Frequency (at 7.5 mg/kg/day): 100%
- first response events: Flush (at 7.5 mg/kg/day): 1
- first response events: OPA score (at 7.5 mg/kg/day): 1
- first response events: QLQ30 Symptom (at 7.5 mg/kg/day): 1
- first response events: Total events (at 7.5 mg/kg/day): 3
- AFIRMM ΔMean ± SD (W4): −44.5 ± 51.6
- Flushes per day ΔMean ± SD (W4): −1.1 ± 1.8
- Hamilton rating ΔMean ± SD (W4): −5.9 ± 3.2
- Micturitions per day ΔMean ± SD (W4): −2.5 ± 3.3
- OPA Score Change: (2, 3, 4) to (0, 1) (W4): 3 (18%)
- OPA Score No change (W4): 14 (82%)
- Pruritus ΔMean ± SD (W4): −2.8 ± 3.7
- QLQC30 Functional ΔMean ± SD (W4): 8.7 ± 18.2
- QLQC30 Global Health ΔMean ± SD (W4): 8.3 ± 25.5
- QLQC30 Symptom ΔMean ± SD (W4): −4.1 ± 7.8
- Stools per day ΔMean ± SD (W4): −4.3 ± 2.6
- AFIRMM ΔMean ± SD (W12): −61.9 ± 45.9
- Flushes per day ΔMean ± SD (W12): −1.6 ± 1.5
- Hamilton rating ΔMean ± SD (W12): −4.6 ± 4.9
- Micturitions per day ΔMean ± SD (W12): −5.4 ± 2.6
- OPA Score Change: (2, 3, 4) to (0, 1) (W12): 3 (20%)
- OPA Score No change (W12): 16 (80%)
- Pruritus ΔMean ± SD (W12): −3.3 ± 3.0
- QLQC30 Functional ΔMean ± SD (W12): 11.6 ± 16.4
- QLQC30 Global Health ΔMean ± SD (W12): 16.1 ± 26.4
- QLQC30 Symptom ΔMean ± SD (W12): −7.0 ± 15.2
- Stools per day ΔMean ± SD (W12): −4.2 ± 3.0
- AFIRMM ΔMean ± SD (W24): −66.0 ± 29.9
- Flushes per day ΔMean ± SD (W24): −1.9 ± 3.1
- Hamilton rating ΔMean ± SD (W24): −2.8 ± 9.2
- Micturitions per day ΔMean ± SD (W24): −4.3 ± 5.9
- OPA Score Change: (2, 3, 4) to (0, 1) (W24): 0 (0%)
- OPA Score No change (W24): 3 (100%)
- Pruritus ΔMean ± SD (W24): −5.1 ± 4.7
- QLQC30 Functional ΔMean ± SD (W24): 15.3 ± 10.6
- QLQC30 Global Health ΔMean ± SD (W24): 18.8 ± 27.5
- QLQC30 Symptom ΔMean ± SD (W24): −19.9 ± 8.2
- Stools per day ΔMean ± SD (W24): −2.5 ± 2.1
- AFIRMM ΔMean ± SD (W36): −62.4 ± 31.8
- Flushes per day ΔMean ± SD (W36): −2.1 ± 3.5
- Hamilton rating ΔMean ± SD (W36): −10.3 ± 5.1
- Micturitions per day ΔMean ± SD (W36): −6.5 ± 6.4
- OPA Score Change: (2, 3, 4) to (0, 1) (W36): 1 (20%)
- OPA Score No change (W36): 4 (80%)
- Pruritus ΔMean ± SD (W36): −6.9 ± 3.5
- QLQC30 Functional ΔMean ± SD (W36): 5.8 ± 16.7
- QLQC30 Global Health ΔMean ± SD (W36): 21.7 ± 26.1
- QLQC30 Symptom ΔMean ± SD (W36): −14.4 ± 6.5
- Stools per day ΔMean ± SD (W36): −0.7 ± 3.2
- AFIRMM ΔMean ± SD (W48): −64.3 ± 48.5
- Flushes per day ΔMean ± SD (W48): −2.8 ± 2.9
- Hamilton rating ΔMean ± SD (W48): −11.5 ± 6.4
- Micturitions per day ΔMean ± SD (W48): −7.0 ± 2.8
- OPA Score Change: (2, 3, 4) to (0, 1) (W48): 2 (33%)
- OPA Score No change (W48): 4 (67%)
- Pruritus ΔMean ± SD (W48): −5.2 ± 4.4
- QLQC30 Functional ΔMean ± SD (W48): 0.7 ± 16.7
- QLQC30 Global Health ΔMean ± SD (W48): 12.5 ± 14.7
- QLQC30 Symptom ΔMean ± SD (W48): −10.3 ± 6.4
- Stools per day ΔMean ± SD (W48): −2.0 ± 0.0
- AFIRMM ΔMean ± SD (W60): −61.1 ± 32.9
- Flushes per day ΔMean ± SD (W60): −2.3 ± 2.9
- Hamilton rating ΔMean ± SD (W60): −8.3 ± 7.5
- Micturitions per day ΔMean ± SD (W60): −6.0 ± 4.2
- OPA Score Change: (2, 3, 4) to (0, 1) (W60): 4 (44%)
- OPA Score No change (W60): 5 (56%)
- Pruritus ΔMean ± SD (W60): −4.6 ± 4.3
- QLQC30 Functional ΔMean ± SD (W60): 11.6 ± 11.2
- QLQC30 Global Health ΔMean ± SD (W60): 23.1 ± 25.3
- QLQC30 Symptom ΔMean ± SD (W60): −12.9 ± 8.3
- Stools per day ΔMean ± SD (W60): −4.7 ± 2.9

— US10045978B2 (AB SCIENCE, priority 2010, dated 2018)
